Data on 5 compounds can be found in ChEMBL document CHEMBL1145083, “Novel estrogen receptor ligands based on an anthranylaldoxime structure: role of the phenol-type pseudocycle in the binding process” (J Med Chem, 2003).

The term Ki denotes a dissociation constant, usually derived from enzyme kinetics or from competition with a known ligand. Low readings indicate higher affinity, high ones lower affinity.

Where “and” joins values, the source holds several entries; their conditions need not be identical. Equal entries are not always repeated.

Test [1] addresses T1, Estrogen receptor (Homo sapiens, UniProt P03372).
T1 sequence (P03372 whole entry): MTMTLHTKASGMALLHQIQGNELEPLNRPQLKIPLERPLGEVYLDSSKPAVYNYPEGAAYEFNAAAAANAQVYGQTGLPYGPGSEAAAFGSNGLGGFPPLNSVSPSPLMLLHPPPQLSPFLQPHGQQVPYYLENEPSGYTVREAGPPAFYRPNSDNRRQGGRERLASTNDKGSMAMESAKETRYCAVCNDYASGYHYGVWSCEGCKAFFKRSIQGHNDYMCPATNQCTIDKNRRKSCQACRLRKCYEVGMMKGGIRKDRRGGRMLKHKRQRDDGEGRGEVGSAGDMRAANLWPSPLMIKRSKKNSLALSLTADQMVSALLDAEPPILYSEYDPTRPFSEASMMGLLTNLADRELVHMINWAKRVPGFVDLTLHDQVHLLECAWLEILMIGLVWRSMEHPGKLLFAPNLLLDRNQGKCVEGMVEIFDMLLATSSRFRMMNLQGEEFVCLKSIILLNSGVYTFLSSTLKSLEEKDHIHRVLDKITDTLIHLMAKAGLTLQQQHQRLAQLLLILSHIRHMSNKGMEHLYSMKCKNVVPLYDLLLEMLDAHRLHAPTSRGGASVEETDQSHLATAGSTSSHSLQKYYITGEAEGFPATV

The target in test [2] is T2, Estrogen receptor beta (Homo sapiens, UniProt Q92731). Kind of test: Antagonist effect on transcriptional activation in HEC-1 cells expressing Estrogen receptor beta at 10e-6 M against 10e-9 M estradiol. It counts as functional, cell-based.
Test [3] addresses T2, Estrogen receptor beta. The experiment in a line: Agonist effect on transcriptional activation in HEC-1 cells expressing Estrogen receptor beta at 10e-8 M. It counts as functional, cell-based.
In test [4] the target is T2, Estrogen receptor beta.

T2 sequence (Q92731 whole entry): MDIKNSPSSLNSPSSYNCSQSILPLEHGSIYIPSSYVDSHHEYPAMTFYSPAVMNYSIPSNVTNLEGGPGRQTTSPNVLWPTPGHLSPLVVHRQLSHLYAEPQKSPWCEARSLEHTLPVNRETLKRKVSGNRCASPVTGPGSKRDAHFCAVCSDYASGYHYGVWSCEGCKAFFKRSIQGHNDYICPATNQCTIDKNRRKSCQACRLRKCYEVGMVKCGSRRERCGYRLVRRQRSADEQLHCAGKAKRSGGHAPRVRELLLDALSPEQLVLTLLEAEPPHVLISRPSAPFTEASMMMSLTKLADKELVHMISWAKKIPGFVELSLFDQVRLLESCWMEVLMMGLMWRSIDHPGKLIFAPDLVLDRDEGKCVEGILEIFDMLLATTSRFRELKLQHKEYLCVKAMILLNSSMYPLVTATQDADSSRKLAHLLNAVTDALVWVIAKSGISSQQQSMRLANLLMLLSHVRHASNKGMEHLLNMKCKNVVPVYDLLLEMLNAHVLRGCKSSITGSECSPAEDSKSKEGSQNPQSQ

Turning to `CCNc1c(/C=N/O)ccc(-c2ccccc2)c1-c1ccccc1`, the Ki in test [1] is 0.47 nM; in test [4], 0.048 nM. Also, the Efficacy in test [2] is 85%; in test [3], 0.94% and 4.9%.
`Nc1c(/C=N/O)ccc(-c2ccccc2)c1-c1ccccc1`: the Ki in test [1] came to 2.2 nM; in test [4], 2.8 nM. Also, the Efficacy was 31% in test [2]; 6% and 23% in test [3].
As for `O/N=C/c1ccc(-c2ccccc2)c(-c2ccccc2)c1`, the values for the Ki in test [1] and in test [4] were 0.15 nM and 0.27 nM, respectively. Besides, the Efficacy in test [2] is 69%; in test [3], 1.3% and 20%.
In the case of `O/N=C/c1ccc(-c2ccccc2)c(-c2ccccc2)c1O`, the Ki in test [1] came to 1.1 nM; in test [4], 1.7 nM. For the same compound, the Efficacy is 53% in test [2]; 2.6% and 24% in test [3].
For `CNc1c(/C=N/O)ccc(-c2ccccc2)c1-c1ccccc1`, the Ki was determined as 3.7 nM in test [1] and 5.2 nM in test [4]. Also, the Efficacy was 71% in test [2]; 1.1% and 22% in test [3].
